Literature values in patent publication US20230113077A1, “CONTROLLED RELEASE SELEXIPAG COMPOSITION” (ACTELION PHARMACEUTICALS LTD, priority 2020, published 2023).

Details: phase III clinical trial; patients with pulmonary arterial hypertension; selexipag versus placebo

For CC(C)N(CCCCOCC(=O)NS(C)(=O)=O)c1cnc(-c2ccccc2)c(-c2ccccc2)n1 [selexipag, 2-{4-[N-(5,6-diphenylpyrazin-2-yl)-N-isopropylamino]butyloxy}-N-(methylsulfonyl)acetamide], the “risk of the primary composite end point of death or a complication related to pulmonary arterial hypertension” value is listed as “significantly lower”.
